From US20240239759A1, “ISOXAZOLINE COMPOSITIONS AND THEIR USE AS ANTIPARASITICS” (Intervet Inc., priority 2007, published 2024)
Read-outs that look alike come from different tables or passages of the source.

Tests used:
[1] = Side effects in dogs (Example 5); type: in vivo; details: beagles; oral 20 mg/kg or topical 200 ppm
Procedure: (§1) On Day Zero, one group of 4 beagles was treated orally with gelatin capsules containing 20 mg/kg body weight of […]. Another group of 4 beagles was treated topically by washing with 2 L of solution containing 200 ppm body weight of […] dissolved in DMF-premix/tap water (1:100, based on volume). Finally, a group of 3 beagles remained untreated as the negative control. Two days before treatment on Day Zero, all the beagles were each infested with approximately 80 unfed adult fleas (C. felis) and approximately 60 unfed adult ticks (R. sanguineus). The parasite burden of each beagle was assessed on Day 2 (approximately 48 hr after the treatment) by removing and counting the fleas and ticks. Fleas and ticks were classified according to vitality (fleas: dead or alive; ticks: dead or alive, and engorged or not engorged). The efficacy was calculated from the mean number of vital fleas and ticks in the treated group (Mt) relative to the mean number of vital fleas and ticks in the untreated control group (Mc) using following formula: […]

[2] = system: brown dog ticks (R. sanguineus); assay: Efficacy against brown dog ticks on dogs (Example 5); type: in vivo, Rhipicephalus sanguineus; details: beagles, Day 2 (approx. 48 hr after treatment)
Procedure: as §1

[3] = Side effects in mice, mite study (Example 2B); type: in vivo; details: topical 100 ppm, oral or subcutaneous 10 mg/kg, twice 7 days apart
Procedure: The mice were divided into groups of three, and treated topically with 100 ppm body weight, orally with 10 mg/kg body weight, or subcutaneously with 10 mg/kg body weight of Compound 11-1, fipronil (positive control), or nothing (negative control). This treatment was then repeated 7 days later. The infestation rate per mouse (“+”=low infestation rate, “++”=medium infestation rate, “+++”=high infestation rate) was assessed repeatedly on days 1, 6, 9, 13, and 23. Efficacy was defined as the inhibition of the mite infestation rate on treated mice relative to the negative control group.

cat fleas (C. felis) [4] = assay: Efficacy against cat fleas on dogs (Example 5); type: in vivo, Ctenocephalides felis; details: beagles, Day 2 (approx. 48 hr after treatment)
Procedure: as §1

[5] = system: cat fleas (Ctenocephalides felis); assay: Efficacy of various isoxazolines against cat fleas on mice (Example 3); type: in vivo; details: Ctenocephalides felis, po, mice, oral 20 mg/kg, infested 1 hr after treatment, read-out: Flea inhibition relative to negative control
Procedure: In this experiment, mice were randomly assigned to a treatment group or a negative control (untreated) group. Each group consisted of three mice. The mice in the treatment groups were orally administered 20 mg/kg bodyweight of various isoxazolines dissolved in 7% DMF-premix and 93% purified water (aqua ad injectabilia). The application volume of these treatments was 0.01 mL/g bodyweight. One hour after treatment, each mouse was sedated and generally infested (whole body) with 30 vital, adult fleas (C. felis). To achieve this, the sedated mice were placed into an infestation-jar, and the fleas were placed directly onto the fur. After approximately 30 minutes of feeding, fleas were recovered from the mice. Assessments for inhibition and mortality were conducted 1 hr, 24 hr, and 48 hr after each infestation. The efficacy was calculated as the percentage of inhibited fleas in the treatment groups relative to the negative control group.

cat fleas (C. felis) [6] = assay: Further efficacy study against cat fleas on beagles (Example 6); type: in vivo, Ctenocephalides felis
Procedure: Beagles were randomly assigned to 5 treatment groups of 4 animals each, and one untreated control group of 3 animals.
The dogs were infested with approximately 80 fleas (C. felis) and 60 ticks (R. sanguineus) on Days −2, 7, 14, 21, 28, 35, 42, and 49. Fleas and ticks were counted on Day 2 (approximately 48 h after treatment), as well as Days 9, 16, 23, 30, 37, 44, and 51 (approximately 48 hr after each post-treatment re-infestation) to evaluate the insecticidal and acaricidal activity in the treated groups. In Group B, an additional flea and tick infestation was conducted on Day 56, with a respective flea and tick count on Day 58. In addition to the flea and tick counts, blood samples were collected before the treatments, as well as approximately 2 hr, 4 hr, 8 hr, 24 hr, and 72 hr after the treatment on Day Zero, and then once on each of Days 7, 14, 21, 28, 35, 42, 49, and 56. The concentration of Compound 11-1 in blood plasma was analyzed by HPLC/MS/MS. The LOQ of this method was 5 ng/ml.

[7] = topical washing with 2 L of 200 ppm solution

Cc1cc(C2=NOC(c3cc(Cl)cc(Cl)c3)(C(F)(F)F)C2)ccc1C(=O)NCC(=O)NCC(F)(F)F (racemic) [Compound 11-1, 4-[5-(3,5-dichlorophenyl)-5-trifluoromethyl-4,5-dihydroisoxazol-3-yl]-2-methyl-N-[(2,2,2-trifluoro-ethylcarbamoyl)-methyl]-benzamide]
Side effects [1]: No side effects were observed
Tick efficacy ([2]; oral gelatin capsules 20 mg/kg): 100%
Tick efficacy [2, 7]: 100%
Side effects [3]: No side effects were observed
Flea efficacy (cat fleas (C. felis) [4]; oral gelatin capsules 20 mg/kg): 100%
Flea efficacy (cat fleas (C. felis) [4]; [7]): 100%
pest or weed control at 20 mg/kg ([5]; 1 h, 1 hr after infestation): 78.9%
pest or weed control at 20 mg/kg ([5]; 24 h, 24 hr after infestation): 96.7%
pest or weed control at 20 mg/kg ([5]; 48 h, 48 hr after infestation): 97.8%
Efficacy against cat fleas (cat fleas (C. felis) [6]; Group A: 1 mg/kg oral tablet, Day 2): 100
Efficacy against cat fleas (cat fleas (C. felis) [6]; Group A: 1 mg/kg oral tablet, Day 9): 100
Efficacy against cat fleas (cat fleas (C. felis) [6]; Group A: 1 mg/kg oral tablet, Day 16): 100
Efficacy against cat fleas (cat fleas (C. felis) [6]; Group A: 1 mg/kg oral tablet, Day 23): 100
Efficacy against cat fleas (cat fleas (C. felis) [6]; Group A: 1 mg/kg oral tablet, Day 30): 100
Efficacy against cat fleas (cat fleas (C. felis) [6]; Group A: 1 mg/kg oral tablet, Day 37): 99.6
Efficacy against cat fleas (cat fleas (C. felis) [6]; Group A: 1 mg/kg oral tablet, Day 44): 100
Efficacy against cat fleas (cat fleas (C. felis) [6]; Group A: 1 mg/kg oral tablet, Day 51): 100
Efficacy against cat fleas (cat fleas (C. felis) [6]; Group B: 1 mg/kg subcutaneous injectable solution, Day 2): 100
Efficacy against cat fleas (cat fleas (C. felis) [6]; Group B: 1 mg/kg subcutaneous injectable solution, Day 9): 100
Efficacy against cat fleas (cat fleas (C. felis) [6]; Group B: 1 mg/kg subcutaneous injectable solution, Day 16): 100
Efficacy against cat fleas (cat fleas (C. felis) [6]; Group B: 1 mg/kg subcutaneous injectable solution, Day 23): 100
Efficacy against cat fleas (cat fleas (C. felis) [6]; Group B: 1 mg/kg subcutaneous injectable solution, Day 30): 99.6
Efficacy against cat fleas (cat fleas (C. felis) [6]; Group B: 1 mg/kg subcutaneous injectable solution, Day 37): 100
Efficacy against cat fleas (cat fleas (C. felis) [6]; Group B: 1 mg/kg subcutaneous injectable solution, Day 44): 100
Efficacy against cat fleas (cat fleas (C. felis) [6]; Group B: 1 mg/kg subcutaneous injectable solution, Day 51): 100
Efficacy against cat fleas (cat fleas (C. felis) [6]; Group B: 1 mg/kg subcutaneous injectable solution, Day 58): 99.7
Efficacy against cat fleas (cat fleas (C. felis) [6]; Group C: 1 mg/kg topical spot-on with absorption enhancer, Day 2): 100
Efficacy against cat fleas (cat fleas (C. felis) [6]; Group C: 1 mg/kg topical spot-on with absorption enhancer, Day 9): 100
Efficacy against cat fleas (cat fleas (C. felis) [6]; Group C: 1 mg/kg topical spot-on with absorption enhancer, Day 16): 100
Efficacy against cat fleas (cat fleas (C. felis) [6]; Group C: 1 mg/kg topical spot-on with absorption enhancer, Day 23): 100
Efficacy against cat fleas (cat fleas (C. felis) [6]; Group C: 1 mg/kg topical spot-on with absorption enhancer, Day 30): 100
Efficacy against cat fleas (cat fleas (C. felis) [6]; Group C: 1 mg/kg topical spot-on with absorption enhancer, Day 37): 100
Efficacy against cat fleas (cat fleas (C. felis) [6]; Group C: 1 mg/kg topical spot-on with absorption enhancer, Day 44): 100
Efficacy against cat fleas (cat fleas (C. felis) [6]; Group C: 1 mg/kg topical spot-on with absorption enhancer, Day 51): 100
Efficacy against cat fleas (cat fleas (C. felis) [6]; Group D: 1 mg/kg topical spot-on with absorption enhancer and spreading agent, Day 2): 100
Efficacy against cat fleas (cat fleas (C. felis) [6]; Group D: 1 mg/kg topical spot-on with absorption enhancer and spreading agent, Day 9): 100
Efficacy against cat fleas (cat fleas (C. felis) [6]; Group D: 1 mg/kg topical spot-on with absorption enhancer and spreading agent, Day 16): 100
Efficacy against cat fleas (cat fleas (C. felis) [6]; Group D: 1 mg/kg topical spot-on with absorption enhancer and spreading agent, Day 23): 100
Efficacy against cat fleas (cat fleas (C. felis) [6]; Group D: 1 mg/kg topical spot-on with absorption enhancer and spreading agent, Day 30): 100
Efficacy against cat fleas (cat fleas (C. felis) [6]; Group D: 1 mg/kg topical spot-on with absorption enhancer and spreading agent, Day 37): 100
Efficacy against cat fleas (cat fleas (C. felis) [6]; Group D: 1 mg/kg topical spot-on with absorption enhancer and spreading agent, Day 44): 100
Efficacy against cat fleas (cat fleas (C. felis) [6]; Group D: 1 mg/kg topical spot-on with absorption enhancer and spreading agent, Day 51): 100
Efficacy against cat fleas (cat fleas (C. felis) [6]; Group E: 1 mg/kg topical spot-on in ethyl lactate, Day 2): 100
Efficacy against cat fleas (cat fleas (C. felis) [6]; Group E: 1 mg/kg topical spot-on in ethyl lactate, Day 9): 100
Efficacy against cat fleas (cat fleas (C. felis) [6]; Group E: 1 mg/kg topical spot-on in ethyl lactate, Day 16): 100
Efficacy against cat fleas (cat fleas (C. felis) [6]; Group E: 1 mg/kg topical spot-on in ethyl lactate, Day 23): 100
Efficacy against cat fleas (cat fleas (C. felis) [6]; Group E: 1 mg/kg topical spot-on in ethyl lactate, Day 30): 100
Efficacy against cat fleas (cat fleas (C. felis) [6]; Group E: 1 mg/kg topical spot-on in ethyl lactate, Day 37): 100
Efficacy against cat fleas (cat fleas (C. felis) [6]; Group E: 1 mg/kg topical spot-on in ethyl lactate, Day 44): 100
Efficacy against cat fleas (cat fleas (C. felis) [6]; Group E: 1 mg/kg topical spot-on in ethyl lactate, Day 51): 100
